Laboratory results from US20140329682A1, “METHOD OF CONTROLLING WEED IN A SUGAR CANE FIELD” (SUMITOMO CHEMICAL COMPANY, LIMITED, priority 2011, published 2014).

Experiments:
[1] = system: Amaranthus retroflexus; assay: Herbicidal activity, spray above weed before planting, strobilurin-treated stem cutting (Example 9); type: in vivo; conditions: sprayed above weed, 3 cm stem cutting treated with kresoxim-methyl, azoxystrobin or another listed strobilurin fungicide planted one week after treatment, four weeks after treatment
[2] = system: Amaranthus retroflexus; assay: Herbicidal activity, spray above weed before planting, metalaxyl-treated stem cutting (Example 13); type: in vivo; conditions: sprayed above weed, 3 cm stem cutting treated with metalaxyl or metalaxyl-M planted one week after treatment, four weeks after treatment
[3] = system: Amaranthus retroflexus; assay: Herbicidal activity, soil surface spray, metalaxyl-treated stem cutting (Example 12); type: in vivo; conditions: 3 cm stem cutting treated with metalaxyl or metalaxyl-M, four weeks after treatment
Procedure: A soil is packed into a plastic pot. Seeds of Amaranthus retroflexus are seeded thereon.

[4] = system: sugar cane; assay: Phytotoxicity on sugar cane, spray above weed before planting, strobilurin-treated stem cutting (Example 9); conditions: Example 9; sprayed above weed; 3 cm stem cutting treated with kresoxim-methyl, azoxystrobin or another listed strobilurin fungicide planted one week after treatment; four weeks after treatment
Procedure: (§1) The “phytotoxicity” evaluated herein is the damage characteristic determined to be due to a treated compound, and is clearly discriminated from the damage characteristic caused by a harmful animal or plant disease.
(§2) A soil is packed into a plastic pot, and seeds of Amaranthus retroflexus are seeded thereon. Thereafter, the pot is placed in a greenhouse, and the weed is grown.
A 30 cm to 40 cm stem cutting of sugar cane is placed on a wet soil, and germination is stimulated. The stem cutting from which a bud has grown to about 1 cm is selected, and the length of the stem cutting is adjusted to be 3 cm so that the stem cutting has one node. Kresoxim-methyl, azoxystrobin, trifloxystrobin, fluoxastrobin, picoxystrobin, pyraclostrobin, dimoxystrobin, pyribencarb, metominostrobin, orysastrobin, enestrobin, pyraoxystrobin or pyrametostrobin is adhered to the stem cutting.
(§3) The pot for a test is placed in a greenhouse.

[5] = system: Amaranthus retroflexus; assay: Herbicidal activity, soil surface spray, azole-fungicide-treated stem cutting (Example 10); type: in vivo; conditions: 3 cm stem cutting treated with azaconazole, bitertanol or another listed azole-type fungicide, four weeks after treatment
From the text: A 30 to 40 cm stem cutting of sugar cane is placed on a wet soil, and germination is stimulated. The stem cutting from which a bud has grown to about 1 cm is selected, and the length of the stem cutting is adjusted to be 3 cm so that the stem cutting has one node. Azaconazole, bitertanol, bromoconazole, cyproconazole, difenoconazole, diniconazole, epoxyconazole, fenbuconazole, fluquinconazole, flusilazole, flutriafol, hexaconazole, imibenconazole, ipconazole, metconazole, myclobutanil, penconazole, propiconazole, prothioconazole, simeconazole, tebuconazole, tetraconazole, triadimenol, triticonazole, fenarimol, nuarimol, pyrifenox, imazalil, oxpoconazole fumarate, pefurazoate, procloraz or triflumizole is adhered to the stem cutting. A soil is packed into a plastic pot, and seeds of Amaranthus retroflexus are seeded thereon. The stem cutting of sugar cane treated with azaconazole, bitertanol, bromoconazole, cyproconazole, difenoconazole, diniconazole, epoxyconazole, fenbuconazole, fluquinconazole, flusilazole, flutriafol, hexaconazole, imibenconazole, ipconazole, metconazole, myclobutanil, penconazole, propiconazole, prothioconazole, simeconazole, tebuconazole, tetraconazole, triadimenol, triticonazole, fenarimol, nuarimol, pyrifenox, imazalil, oxpoconazole fumarate, pefurazoate, procloraz or triflumizole is planted in the soil packed into the pot at a depth of 2 cm. […] Thereafter, the pot for a test is placed in a greenhouse.

[6] = system: Amaranthus retroflexus; assay: Herbicidal activity, spray above weed one week before planting (Example 5); type: in vivo; conditions: sprayed above weed three weeks after seeding, 3 cm stem cutting planted one week after treatment, four weeks after treatment
From the text: A 30 cm to 40 cm stem cutting of sugar cane is placed on a wet soil, and germination is stimulated. The stem cutting from which a bud has been grown to about 1 cm is selected, and the length of the stem cutting is adjusted to be 3 cm so that the stem cutting has one node.

[7] = system: sugar cane; assay: Phytotoxicity on sugar cane, spray above weed before planting, insecticide-treated stem cutting (Example 7); conditions: Example 7; sprayed above weed; 3 cm stem cutting treated with clothianidin, thiamethoxiam, imidacloprid, dinotefuran, nitenpyram, acetamiprid or thiacloprid planted one week after treatment; four weeks after treatment
Procedure: as §1, §2
(§4) A 30 cm to 40 cm stem cutting of sugar cane is placed on a wet soil, and germination is stimulated. The stem cutting from which a bud has grown to about 1 cm is selected, and the length of the stem cutting is adjusted to be 3 cm so that the stem cutting has one node. Clothianidin, thiamethoxiam, imidacloprid, dinotefuran, nitenpyram, acetamiprid or thiacloprid is adhered to the stem cutting.
as §3

[8] = system: Amaranthus retroflexus; assay: Herbicidal activity, spray above weed before planting, azole-fungicide-treated stem cutting (Example 11); type: in vivo; conditions: sprayed above weed, 3 cm stem cutting treated with azaconazole, bitertanol or another listed azole-type fungicide planted one week after treatment, four weeks after treatment
Procedure: A soil is packed into a plastic pat, and seeds of Amaranthus retroflexus are seeded thereon. Thereafter, the pot is placed in a greenhouse, and the weed is grown.

[9] = system: sugar cane; assay: Phytotoxicity on sugar cane, soil surface spray, metalaxyl-treated stem cutting (Example 12); conditions: Example 12; 3 cm stem cutting treated with metalaxyl or metalaxyl-M; soil surface spray; four weeks after treatment
From the text: as §1
(§5) A 30 cm to 40 cm stem cutting of sugar cane is placed on a wet soil, and germination is stimulated. The stem cutting from which a bud has grown to about 1 cm is selected, and the length of the stem cutting is adjusted to be 3 cm so that the stem cutting has one node. Metalaxyl or metalaxyl-M is adhered to the stem cutting. A soil is packed into a plastic pot. Seeds of Amaranthus retroflexus are seeded thereon. The stem cutting of sugar cane treated with metalaxyl or metalaxyl-M is planted in the soil packed into the pot at a depth of 2 cm. […] Thereafter, the pot for a test is placed in a greenhouse.

[10] = system: sugar cane; assay: Phytotoxicity on sugar cane, spray above weed before planting, metalaxyl-treated stem cutting (Example 13); conditions: Example 13; sprayed above weed; 3 cm stem cutting treated with metalaxyl or metalaxyl-M planted one week after treatment; four weeks after treatment
Procedure: as §1
A soil is packed into a plastic pot, and seeds of Amaranthus retroflexus are seeded thereon. Thereafter, a pot is placed in a greenhouse, and the weed is grown.
as §4, with “Metalaxyl” for “Clothianidin, thiamethoxiam, imidacloprid, dinotefuran, nitenpyram, acetamiprid”, “metalaxyl-M” for “thiacloprid”
as §3

[11] = system: sugar cane; assay: Phytotoxicity on sugar cane, soil surface spray, strobilurin-treated stem cutting (Example 8); conditions: Example 8; 3 cm stem cutting treated with kresoxim-methyl, azoxystrobin or another listed strobilurin fungicide; soil surface spray; four weeks after treatment
From the text: as §1
as §5, with “Kresoxim-methyl, azoxystrobin, trifloxystrobin, fluoxastrobin, picoxystrobin, pyraclostrobin, dimoxystrobin, pyribencarb, metominostrobin, orysastrobin, enestrobin, pyraoxystrobin” for “Metalaxyl”, “pyrametostrobin” for “metalaxyl-M”, “pot, and seeds” for “pot. Seeds”, “kresoxim-methyl, azoxystrobin, trifloxystrobin, fluoxastrobin, picoxystrobin, pyraclostrobin, dimoxystrobin, pyribencarb, metominostrobin, orysastrobin, enestrobin, pyraoxystrobin” for “metalaxyl”

[12] = system: sugar cane; assay: Phytotoxicity on sugar cane, soil surface spray, insecticide-treated stem cutting (Example 6); conditions: Example 6; 3 cm stem cutting treated with clothianidin, thiamethoxiam, imidacloprid, dinotefuran, nitenpyram, acetamiprid or thiacloprid; soil surface spray; four weeks after treatment
From the text: as §1
as §5, with “Clothianidin, thiamethoxiam, imidacloprid, dinotefuran, nitenpyram, acetamiprid” for “Metalaxyl”, “thiacloprid” for “metalaxyl-M”, “pot, and seeds” for “pot. Seeds”, “clothianidin, thiamethoxiam, imidacloprid, dinotefuran, nitenpyram, acetamiprid” for “metalaxyl”

CCOc1cc(Oc2ccc(C(F)(F)F)cc2Cl)ccc1[N+](=O)[O-] [oxyfluorfen]
herbicidal activity against Amaranthus retroflexus [1]: the controlling effect on a weed can be confirmed
herbicidal activity against Amaranthus retroflexus [2]: the controlling effect on a weed can be confirmed
herbicidal activity against Amaranthus retroflexus [3]: the controlling effect on a weed can be confirmed
phytotoxicity [4]: significant phytotoxicity on sugar cane is not observed
herbicidal activity against Amaranthus retroflexus [5]: the control effect on a weed can be confirmed
herbicidal activity against Amaranthus retroflexus [6]: the controlling effect on a weed can be confirmed
phytotoxicity [7]: significant phytotoxicity on sugar cane is not observed
herbicidal activity against Amaranthus retroflexus [8]: the controlling effect on a weed can be confirmed
phytotoxicity [9]: significant phytotoxicity on sugar cane is not observed
phytotoxicity [10]: significant phytotoxicity on sugar cane is not observed
phytotoxicity [11]: significant phytotoxicity on sugar cane is not observed
phytotoxicity [12]: significant phytotoxicity on sugar cane is not observed
